Results: patent US12252481B2, “Anti-viral compounds” (Aligos Therapeutics, Inc., priority 2021, dated 2025)
pEC50, pIC50: −log10 of the molar value. Where two headings read alike, the source gives them in different places.

Key:
SARS-Cov-2 3CLpro = molecular target: T1, SARS-Cov-2 3CLpro (Severe acute respiratory syndrome coronavirus 2, UniProt P0DTD1); assay: biochemical; conditions: read-out: SARS-Cov-2 IC50 (class)
T1 construct: 3CLpro and HRV3C was added using a Multidrop Combi

[1] = system: human beta-coronavirus OC43; assay: OC43 coronavirus antiviral assay in HeLa cells (cytopathic effect, cell-titer-glo); assay type: cell-based; conditions: 6 days at 33° C., read-out: EC50 (class)
human cathepsin L = molecular target: T2, human cathepsin L (Homo sapiens, UniProt P07711); assay: Cathepsin L assay (Z-FR-AMC fluorescence); assay type: biochemical; conditions: 10 pM human cathepsin L, 30 mins preincubation, Z-FR-AMC 2 μM
T2 construct: purchased R&D Systems
T2 sequence (P07711 114-333): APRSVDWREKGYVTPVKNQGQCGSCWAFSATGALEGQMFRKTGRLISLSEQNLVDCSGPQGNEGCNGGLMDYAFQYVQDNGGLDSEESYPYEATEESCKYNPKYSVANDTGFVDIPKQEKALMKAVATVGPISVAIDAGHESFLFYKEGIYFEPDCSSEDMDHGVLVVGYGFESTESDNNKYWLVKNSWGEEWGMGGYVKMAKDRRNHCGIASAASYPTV
Procedure, shortened: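 IC50 values were taken from four-parameter fits of fluorescence read at 355/460 nm every 2 minutes for 30 minutes. The reaction started when 2 μM Z-FR-AMC was added. Before that, 10 pM human cathepsin L had been preincubated with inhibitor for 30 minutes.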

[2] = system: A549-dual_ACE2_TMPRSS2 cells
HRV3C = molecular target: T3, HRV3C (Human rhinovirus 14, UniProt P03303); assay: biochemical; parameters: species or system HRV
T3 construct: 3CLpro and HRV3C was added using a Multidrop Combi
T3 sequence (P03303 1538-1719): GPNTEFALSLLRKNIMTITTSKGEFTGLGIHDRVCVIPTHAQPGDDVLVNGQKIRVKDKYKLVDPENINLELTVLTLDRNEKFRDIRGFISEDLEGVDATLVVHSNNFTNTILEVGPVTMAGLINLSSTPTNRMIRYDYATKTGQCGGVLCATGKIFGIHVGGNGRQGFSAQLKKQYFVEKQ

Vero E6-eGFP cells = conditions: read-out: VeroE6 + CP (CC50), absence of virus, numeric values
HeLa cells [3] = assay: Cytotoxicity in HeLa cells without OC43 virus (cell-titer-glo); conditions: HeLa cells without OC43 virus
[4] = system: B.1.1.7 lineage SARS-CoV-2; assay: microbe, parasite or virus in culture; assay type: cell-based; conditions: read-out: A549-dual_ACE2_TMPRSS2 (EC50)
[5] = system: SARS-CoV-2-GHB-03021/2020; assay type: cell-based; conditions: read-out: VeroE6 + CP (EC50)
HeLa cells [6] = system: HeLa cells
[7] = read-out: A549-dual_ACE2_TMPRSS2 (CC50), assay medium without virus, MTS, numeric values
[8] = HRV3C, 30 mins preincubation, SAMDI-MS, read-out: HRV IC50 (bound)
[9] = 3CLpro, 30 mins preincubation, SAMDI-MS

`CC(C)(C)[C@H](NC(=O)C(F)(F)F)C(=O)N1C[C@H]2[C@@H]([C@H]1C(=O)NC(C[C@@H]1CCNC1=O)C(=O)C(=O)NC1CC1)[C@H]1C=C[C@@H]2C1` (stereo partly drawn) [Example 10, N-cyclopropyl-3-{[(1R,2S,3S,6R,7S)-4-[(2S)-3,3-dimethyl-2-(2,2,2-trifluoroacetamido)butanoyl]-4-azatricyclo[5.2.1.0^{2,6}]dec-8-en-3-yl]formamido}-2-oxo-4-[(3S)-2-oxopyrrolidin-3-yl]butanamide] gave a pIC50 (SARS-Cov-2 3CLpro) greater than 7.70, a pEC50 [1] of 6.00 to 7.00 and a pIC50 (human cathepsin L) of no more than 5.00. The CC50 [2, 7] was greater than 10 µM, the pIC50 (HRV3C; HRV3C, 30 mins preincubation, SAMDI-MS, read-out: HRV IC50 (class)) was 6.70 to 7.70 and the CC50 (Vero E6-eGFP cells) was greater than 50 µM. For the same compound, the CC50 (HeLa cells [3]; read-out: CC50 (class)) was greater than 10 µM.
`CC(C)(C)[C@H](NC(=O)C(F)(Cl)Cl)C(=O)N1C[C@H]2[C@@H]([C@H]1C(=O)N[C@H](C#N)C[C@@H]1CCNC1=O)[C@H]1C=C[C@@H]2C1` [Compound 48, (1R,2S,3S,6R,7S)—N-[(1S)-1-cyano-2-[(3S)-2-oxopyrrolidin-3-yl]ethyl]-4-[(2S)-2-(2,2-dichloro-2-fluoroacetamido)-3,3-dimethylbutanoyl]-4-azatricyclo[5.2.1.0^{2,6}]dec-8-ene-3-carboxamide] showed a pIC50 (SARS-Cov-2 3CLpro) greater than 7.70, a pEC50 [1] greater than 7.00 and a pIC50 (human cathepsin L) of no more than 5.00. The CC50 [2, 7] was greater than 10 µM, the pEC50 [4] was greater than 7.00 and the pIC50 (HRV3C; [8]) was less than 5.00. For the same compound, the pEC50 [5] was greater than 7.00, the CC50 (Vero E6-eGFP cells) was greater than 50 µM and the CC50 (HeLa cells [3]) was greater than 100 µM.
`CC(C)(C)[C@H](NC(=O)C1(C(F)(F)F)CC1)C(=O)N1C[C@H]2[C@@H]([C@H]1C(=O)N[C@H](C#N)C[C@@H]1CCNC1=O)[C@H]1C=C[C@@H]2C1` [Example 20, (1R,2S,3S,6R,7S)—N-[(1S)-1-cyano-2-[(3S)-2-oxopyrrolidin-3-yl]ethyl]-4-[(2S)-3,3-dimethyl-2-{[1-(trifluoromethyl)cyclopropyl]formamido}butanoyl]-4-azatricyclo[5.2.1.0^{2,6}]dec-8-ene-3-carboxamide] gave a pIC50 (SARS-Cov-2 3CLpro; [9]) greater than 7.70, a pEC50 [1] greater than 7.00 and a pIC50 (human cathepsin L) of no more than 5.00. It also gave a CC50 [2, 7] greater than 10 µM, a CC50 (HeLa cells [6]) greater than 100 µM and a pEC50 [4] of 6.00 to 7.00. It also gave a pIC50 (HRV3C; [8]) of less than 5.00, a pEC50 [5] greater than 7.00 and a CC50 (Vero E6-eGFP cells) greater than 50 µM.
For `CC1(C(=O)N[C@H](C(=O)N2C[C@H]3[C@@H]([C@H]2C(=O)N[C@H](C#N)C[C@@H]2CCNC2=O)[C@H]2C=C[C@@H]3C2)C(C)(C)C)CC1` [Compound 47, (1R,2S,3S,6R,7S)—N-[(1S)-1-cyano-2-[(3S)-2-oxopyrrolidin-3-yl]ethyl]-4-[(2S)-3,3-dimethyl-2-[(1-methylcyclopropyl)formamido]butanoyl]-4-azatricyclo[5.2.1.0^{2,6}]dec-8-ene-3-carboxamide], the pIC50 (SARS-Cov-2 3CLpro; [9]) was 6.70 to 7.70, the pEC50 [1] was 6.00 to 7.00 and the pIC50 (human cathepsin L) was no more than 5.00. The CC50 [2, 7] was greater than 10 µM, the CC50 (HeLa cells [6]) was greater than 100 µM and the pIC50 (HRV3C; [8]) was less than 5.00. It also gave a CC50 (Vero E6-eGFP cells) greater than 50 µM.
Work on `C[C@@H](OC(C)(C)C)[C@H](NC(=O)C(F)(F)F)C(=O)N1C[C@H]2[C@@H]([C@H]1C(=O)N[C@H](C#N)C[C@@H]1CCNC1=O)[C@H]1C=C[C@@H]2C1` [Example 3, (1R,2S,3S,6R,7S)-4-[(2S,3R)-3-(tert-butoxy)-2-(2,2,2-trifluoroacetamido)butanoyl]-N-[(1S)-1-cyano-2-[(3S)-2-oxopyrrolidin-3-yl]ethyl]-4-azatricyclo[5.2.1.0^{2,6}]dec-8-ene-3-carboxamide] yielded a pIC50 (SARS-Cov-2 3CLpro) greater than 7.70, a pEC50 [1] greater than 7.00 and a pIC50 (human cathepsin L) of no more than 5.00. For the same compound, the CC50 [2, 7] was greater than 10 µM, the pEC50 [4] was greater than 7.00 and the pIC50 (HRV3C; [8]) was less than 5.00. The pEC50 [5] was greater than 7.00, the CC50 (Vero E6-eGFP cells) was greater than 50 µM and the CC50 (HeLa cells [3]) was greater than 100 µM.
`C=C1C[C@@H]2C[C@H]1[C@H]1[C@@H]2CN(C(=O)[C@@H](NC(=O)C(F)(F)F)C(C)(C)C)[C@@H]1C(=O)N[C@H](C#N)C[C@@H]1CCNC1=O` [Compound 62, (1S,2S,3S,6R,7S)—N-[(1S)-1-cyano-2-[(3S)-2-oxopyrrolidin-3-yl]ethyl]-4-[(2S)-3,3-dimethyl-2-(2,2,2-trifluoroacetamido)butanoyl]-9-methylidene-4-azatricyclo[5.2.1.0^{2,6}]decane-3-carboxamide] was tested, and the pIC50 (SARS-Cov-2 3CLpro) was greater than 7.70, the pEC50 [1] was greater than 7.00 and the pIC50 (human cathepsin L) was no more than 5.00. It also gave a CC50 [2, 7] greater than 10 µM, a pEC50 [4] greater than 7.00 and a pIC50 (HRV3C; [8]) of less than 5.00. It also gave a CC50 (HeLa cells [3]) greater than 100 µM.
`CC(C)(C)[C@H](NC(=O)C(F)(F)F)C(=O)N1C[C@H]2[C@@H]([C@H]1C(=O)N[C@H](C#N)CC1Cn3ncnc3NC1=O)[C@H]1C=C[C@@H]2C1` (stereo partly drawn) [Compound 51, (1R,2S,3S,6R,7S)—N-[(1S)-1-cyano-2-{5-oxo-4H,6H,7H-[1,2,4]triazolo[1,5-α]pyrimidin-6-yl}ethyl]-4-[(2S)-3,3-dimethyl-2-(2,2,2-trifluoroacetamido)butanoyl]-4-azatricyclo[5.2.1.0^{2,6}]dec-8-ene-3-carboxamide] showed a pIC50 (SARS-Cov-2 3CLpro) greater than 7.70, a pEC50 [1] of 6.00 to 7.00 and a pIC50 (human cathepsin L) of no more than 5.00. It also gave a CC50 [2, 7] greater than 10 µM, a pEC50 [4] of 5.00 to 6.00 and a pIC50 (HRV3C; [8]) of less than 5.00. For the same compound, the CC50 (Vero E6-eGFP cells) was greater than 50 µM and the CC50 (HeLa cells [3]) was greater than 100 µM.
`CC(C)(C)[C@H](NC(=O)c1cnccn1)C(=O)N1C[C@H]2[C@@H]([C@H]1C(=O)N[C@H](C#N)C[C@@H]1CCNC1=O)[C@H]1C=C[C@@H]2C1` [Example 6, (1R,2S,3S,6R,7S)—N-[(1S)-1-cyano-2-[(3S)-2-oxopyrrolidin-3-yl]ethyl]-4-[(2S)-3,3-dimethyl-2-(pyrazin-2-ylformamido)butanoyl]-4-azatricyclo[5.2.1.0^{2,6}]dec-8-ene-3-carboxamide] showed a pIC50 (SARS-Cov-2 3CLpro) of 6.70 to 7.70, a pEC50 [1] greater than 7.00 and a pIC50 (human cathepsin L) of no more than 5.00. It also gave a CC50 [2] greater than 10 µM, a CC50 (HeLa cells [6]) greater than 100 µM and a pEC50 [4] of 5.00 to 6.00. For the same compound, the pIC50 (HRV3C; read-out: HRV IC50 (bound)) was less than 5.00 and the pEC50 [5] was 5.00 to 6.00.
Work on `C#CC(C)(C)[C@H](NC(=O)C(F)(F)F)C(=O)N1C[C@H]2[C@@H]([C@H]1C(=O)N[C@H](C#N)C[C@@H]1CCNC1=O)[C@H]1C=C[C@@H]2C1` [Example 7, (1R,2S,3S,6R,7S)—N-[(1S)-1-cyano-2-[(3S)-2-oxopyrrolidin-3-yl]ethyl]-4-[(2S)-3,3-dimethyl-2-(2,2,2-trifluoroacetamido)pent-4-ynoyl]-4-azatricyclo[5.2.1.0^{2,6}]dec-8-ene-3-carboxamide] yielded a pIC50 (SARS-Cov-2 3CLpro) greater than 7.70, a pEC50 [1] greater than 7.00 and a pIC50 (human cathepsin L) of no more than 5.00. The CC50 [2, 7] was greater than 10 µM, the pEC50 [4] was greater than 7.00 and the pIC50 (HRV3C; [8]) was less than 5.00. The pEC50 [5] was greater than 7.00, the CC50 (Vero E6-eGFP cells) was greater than 50 µM and the CC50 (HeLa cells [3]) was greater than 100 µM.
Work on `N#C[C@H](C[C@@H]1CCNC1=O)NC(=O)[C@@H]1[C@@H]2[C@H](CN1C(=O)[C@@H]1C[C@]13CCCc1ccccc13)[C@@H]1C=C[C@H]2C1` (single isomer, unassigned) [Example 8] yielded a pIC50 (SARS-Cov-2 3CLpro; [9]) of 6.70 to 7.70, a pEC50 [1] of 6.00 to 7.00 and a pIC50 (human cathepsin L) of no more than 5.00. For the same compound, the CC50 [2, 7] was greater than 10 µM, the CC50 (HeLa cells [6]) was greater than 100 µM and the pEC50 [4] was greater than 7.00. It also gave a pIC50 (HRV3C; [8]) of less than 5.00 and a CC50 (Vero E6-eGFP cells) greater than 50 µM.
For `CC(C)(C)[C@H](NC(=O)C(F)(F)F)C(=O)N1C[C@@H]2[C@H]3C[C@@H]([C@@H]2[C@H]1C(=O)N[C@H](C#N)C[C@@H]1CCNC1=O)[C@H](F)C3` [Example 86, (1S,2R,3S,6R,7S,9R)—N-[(1S)-1-cyano-2-[(3S)-2-oxopyrrolidin-3-yl]ethyl]-4-[(2S)-3,3-dimethyl-2-(2,2,2-trifluoroacetamido)butanoyl]-9-fluoro-4-azatricyclo[5.2.1.0^{2,6}]decane-3-carboxamide], the pIC50 (SARS-Cov-2 3CLpro) was greater than 7.70, the pEC50 [1] was greater than 7.00 and the pIC50 (human cathepsin L) was no more than 5.00. The CC50 [2, 7] was greater than 10 µM, the pEC50 [4] was greater than 7.00 and the pIC50 (HRV3C; [8]) was less than 6.30. The CC50 (HeLa cells [3]) was greater than 100 µM.
For `CC(C)(C)[C@H](NC(=O)C(F)(F)F)C(=O)N1C[C@@H]2[C@H]3C[C@@H]([C@@H]2[C@H]1C(=O)N[C@H](C#N)C[C@@H]1CCNC1=O)C1(CC1)C3` [Compound 60, (1′S,2′R,5′S,6′S,7′S)—N-[(1S)-1-cyano-2-[(3S)-2-oxopyrrolidin-3-yl]ethyl]-4′-[(2S)-3,3-dimethyl-2-(2,2,2-trifluoroacetamido)butanoyl]-4′-azaspiro[cyclopropane-1,8′-tricyclo[5.2.1.0^{2,6}]decane]-5′-carboxamide], the pIC50 (SARS-Cov-2 3CLpro) was 6.70 to 7.70, the pEC50 [1] was 5.00 to 6.00 and the pIC50 (human cathepsin L) was no more than 5.00. It also gave a CC50 [2, 7] greater than 10 µM, a pEC50 [4] of 6.00 to 7.00 and a pIC50 (HRV3C; [8]) of less than 5.00. It also gave a CC50 (HeLa cells [3]) greater than 100 µM.
Compound `C#CC(C)(C)[C@H](NC(=O)C1(F)CC1)C(=O)N1C[C@H]2[C@@H]([C@H]1C(=O)N[C@H](C#N)C[C@@H]1CCNC1=O)[C@H]1C=C[C@@H]2C1` [Compound 63, (1R,2S,3S,6R,7S)—N-[(1S)-1-cyano-2-[(3S)-2-oxopyrrolidin-3-yl]ethyl]-4-[(2S)-2-[(1-fluorocyclopropyl)formamido]-3,3-dimethylpent-4-ynoyl]-4-azatricyclo[5.2.1.0^{2,6}]dec-8-ene-3-carboxamide] has a pIC50 (SARS-Cov-2 3CLpro; [9]) greater than 7.70, a pEC50 [1] greater than 7.00 and a pIC50 (human cathepsin L) of no more than 5.00. For the same compound, the CC50 [2, 7] was greater than 10 µM, the CC50 (HeLa cells [6]) was greater than 100 µM and the pEC50 [4] was greater than 7.00. It also gave a pIC50 (HRV3C; [8]) of less than 5.00.
